According to patent US8791130B2, “Aminopyrimidine derivatives as LRRK2 modulators” (Genentech, Inc., priority 2011, dated 2014):

Biological target: LRRK2 (Homo sapiens (Human), UniProt Q5S007, G2019S)
Assay: In Vitro LRRK2 LabChip Assay (LRRK2 Ki)
Format: biochemical
Method: In Vitro LRRK2 LabChip Assay This assay was used to determine a compound's potency in inhibiting activity of LRRK2 by determining, Kiapp, IC50, or percent inhibition values. In a polypropylene plate, LRRK2, fluorescently-labeled peptide substrate, ATP and test compound were incubated together. Using a LabChip 3000 (Caliper Life Sciences), after the reaction the substrate was separated by capillary electrophoresis into two populations: phosphorylated and unphosphorylated. The relative amounts of each were quantitated by fluorescence intensity. LRRK2 Ki was determined according to the equation: […]))). Ki values in Table 4 and elsewhere herein are shown in μM. […] Substrate: 5[…] Non-binding plate: 384 well clear V-bottom polypropylene plates (Greiner cat #781280). ATP: 10 mM ATP (Cell Signaling cat #9804). Triton X-100: Triton X-100. Brij-35: Brij-35 (Pierce cat #20150). […] DMSO: DMSO (Sigma cat #34869-100 ML). […] Compound Plate Preparation: For serial dilutions, 34.6 μl DMSO was added to columns 3-24. For the assay controls, 37.5 μl DMSO was added to columns 1 and 2 of rows A and […]-028831 (Staurosporine) was added to columns 1 and 2, row B. […] A Precision instrument was used to perform 1:3.16 serial dilutions (“PLK_BM_serial_halflog”). ATP Preparation: ATP was diluted to 282.1 μM in Complete Kinase Buffer (final concentration was 130 μM). […] Assay Procedure: To a 50 μl polypropylene plate, 5 μl/well buffer/substrate was added by hand to Blank wells. A Biomek FX was used to start the kinase reaction (“PLK SAR 23 ATP”). […] 5 μl/well kinase/substrate in Assay Plate; The plate was incubated for 2 hours in the dark. Biomek FX was used to stop the kinase reaction (“PLK Stop”), and 10 μl/well Stop solution was added to the Assay Plate.

LRRK2, sequence (Q5S007 970-2527 G2019S): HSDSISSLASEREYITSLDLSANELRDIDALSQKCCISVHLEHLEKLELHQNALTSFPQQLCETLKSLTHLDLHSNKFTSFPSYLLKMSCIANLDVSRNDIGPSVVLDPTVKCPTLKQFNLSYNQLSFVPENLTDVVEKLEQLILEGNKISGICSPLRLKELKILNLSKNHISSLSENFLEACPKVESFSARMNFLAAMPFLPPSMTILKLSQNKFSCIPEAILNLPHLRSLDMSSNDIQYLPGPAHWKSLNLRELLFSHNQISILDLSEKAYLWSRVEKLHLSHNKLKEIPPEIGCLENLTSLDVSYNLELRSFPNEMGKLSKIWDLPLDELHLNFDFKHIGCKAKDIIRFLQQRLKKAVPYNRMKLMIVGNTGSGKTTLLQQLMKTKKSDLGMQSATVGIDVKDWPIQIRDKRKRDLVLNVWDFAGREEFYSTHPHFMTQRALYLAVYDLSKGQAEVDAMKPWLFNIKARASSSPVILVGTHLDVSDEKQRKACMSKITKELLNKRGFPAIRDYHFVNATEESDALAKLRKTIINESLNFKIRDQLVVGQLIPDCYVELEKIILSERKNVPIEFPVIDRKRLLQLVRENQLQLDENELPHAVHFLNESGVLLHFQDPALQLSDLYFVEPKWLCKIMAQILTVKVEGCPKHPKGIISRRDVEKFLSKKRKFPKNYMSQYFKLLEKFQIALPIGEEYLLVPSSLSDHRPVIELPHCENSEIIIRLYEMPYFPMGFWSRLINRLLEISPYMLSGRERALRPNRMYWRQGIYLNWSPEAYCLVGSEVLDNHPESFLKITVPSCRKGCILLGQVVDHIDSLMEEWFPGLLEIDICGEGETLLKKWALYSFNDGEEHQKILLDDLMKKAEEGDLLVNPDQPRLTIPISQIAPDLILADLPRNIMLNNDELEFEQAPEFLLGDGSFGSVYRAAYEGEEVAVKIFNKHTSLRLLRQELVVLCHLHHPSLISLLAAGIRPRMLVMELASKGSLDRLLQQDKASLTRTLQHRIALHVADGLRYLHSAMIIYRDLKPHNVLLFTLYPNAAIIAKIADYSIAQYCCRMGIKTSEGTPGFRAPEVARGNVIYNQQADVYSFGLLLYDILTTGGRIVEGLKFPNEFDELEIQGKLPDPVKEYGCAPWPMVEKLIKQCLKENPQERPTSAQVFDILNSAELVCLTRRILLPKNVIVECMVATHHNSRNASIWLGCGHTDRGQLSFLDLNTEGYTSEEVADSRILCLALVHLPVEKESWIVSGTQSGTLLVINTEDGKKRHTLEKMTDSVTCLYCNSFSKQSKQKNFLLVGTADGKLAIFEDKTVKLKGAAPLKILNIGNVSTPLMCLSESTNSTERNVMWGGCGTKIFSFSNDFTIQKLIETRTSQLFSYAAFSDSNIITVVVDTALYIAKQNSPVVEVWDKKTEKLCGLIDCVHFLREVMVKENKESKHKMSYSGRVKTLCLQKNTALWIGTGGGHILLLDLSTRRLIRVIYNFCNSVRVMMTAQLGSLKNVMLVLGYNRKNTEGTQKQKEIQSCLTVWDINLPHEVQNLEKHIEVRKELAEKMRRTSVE

Row | Ki | Structure (SMILES)
1 | 80 nM | CNc1nc(Nc2ccc(-c3nc(C)no3)cc2Cl)ncc1Cl [Compound 34, 5-chloro-N^2-(2-chloro-4-(3-methyl-1,2,4-oxadiazol-5-yl)phenyl)-N^4-methylpyrimidine-2,4-diamine]
2 | 41 nM | CNc1nc(Nc2cc(OC)c(-c3nc(C)no3)cc2Cl)ncc1C(F)(F)F [Compound 31, N^2-(2-chloro-5-methoxy-4-(3-methyl-1,2,4-oxadiazol-5-yl)phenyl)-N^4-methyl-5-(trifluoromethyl) pyrimidine-2,4-diamine]
3 | 12 nM | CNc1nc(Nc2cc(OC)c(-c3nnc(C)o3)cc2Cl)ncc1Cl [Compound 37, 5-chloro-N^2-(2-chloro-5-methoxy-4-(5-methyl-1,3,4-oxadiazol-2-yl)phenyl)-N^4-methylpyrimidine-2,4-diamine]
4 | 3 nM | CNc1nc(Nc2cc(OC)c(-c3cncn3C)cc2Cl)ncc1C(F)(F)F [Compound 21, N^2-(2-chloro-5-methoxy-4-(1-methyl-1H-imidazol-5-yl)phenyl)-N^4-methyl-5-(trifluoromethyl) pyrimidine-2,4-diamine]
5 | 2 nM | CNc1nc(Nc2ccc(-c3cn(C)nc3C)cc2OC)ncc1C(F)(F)F [Compound 38, N2-(4-(1,3-dimethyl-1H-pyrazol-4-yl)-2-methoxyphenyl)-N4-methyl-5-(trifluoromethyl) pyrimidine-2,4-diamine]
6 | 10 nM | CNc1nc(Nc2cc(F)c(-c3nnnn3C)cc2OC)ncc1C(F)(F)F [Compound 22, N^2-(5-fluoro-2-methoxy-4-(1-methyl-1H-tetrazol-5-yl)phenyl)-N^4-methyl-5-(trifluoromethyl) pyrimidine-2,4-diamine]
7 | 3 nM | CNc1nc(Nc2ccc(-c3nnnn3C)cc2OC)ncc1C(F)(F)F [Compound 20, N^2-(2-methoxy-4-(1-methyl-1H-tetrazol-5-yl)phenyl)-N^4-methyl-5-(trifluoromethyl) pyrimidine-2,4-diamine]
8 | 1 nM | CNc1nc(Nc2cc(C)c(-n3nnnc3C)cc2OC)ncc1C(F)(F)F [Compound 45, N2-(2-methoxy-5-methyl-4-(5-methyl-1H-tetrazol-1-yl)phenyl)-N4-methyl-5-(trifluoromethyl) pyrimidine-2,4-diamine]

Continued, compound first:

Row | Structure (SMILES) | Ki
9 | CNc1nc(Nc2ccc(-c3cnnn3C)cc2OC)ncc1C(F)(F)F [Compound 17, N^2-(2-methoxy-4-(1-methyl-1H-1,2,3-triazol-5-yl)phenyl)-N^4-methyl-5-(trifluoromethyl) pyrimidine-2,4-diamine] | 2 nM
10 | CNc1nc(Nc2ccc(-c3cnoc3)cc2OC)ncc1Cl [Compound 14, 5-chloro-N^2-(4-(isoxazol-4-yl)-2-methoxyphenyl)-N^4-methylpyrimidine-2,4-diamine] | 15 nM
11 | CNc1nc(Nc2ccc(-c3cncn3C)cc2OC)ncc1C(F)(F)F [Compound 8] | 2 nM
12 | CNc1nc(Nc2cc(C)c(-n3nnnc3COC)cc2OC)ncc1C(F)(F)F [Compound 46, N2-(2-methoxy-4-(5-(methoxymethyl)-1H-tetrazol-1-yl)-5-methylphenyl)-N4-methyl-5-(trifluuromethyl) pyrimidine-2,4-diamine] | 1 nM
13 | CNc1nc(Nc2ccc(-c3nnnn3C)cc2Cl)ncc1C(F)(F)F [Compound 2, N2-(2-chloro-4-(1-methyl-1H-tetrazol-5-yl)phenyl)-N4-methyl-5-(trifluoromethyl) pyrimidine-2,4-diamine] | 7 nM
